Values of other authors as cited in EP4088714A1, “OPHTHALMIC PHARMACEUTICAL COMPOSITION COMPRISING ATROPINE” (Warszawskie Zaklady Farmaceutyczne Polfa S.A., priority 2021, dated 2022).

CN1[C@@H]2CC[C@H]1C[C@@H](OC(=O)C(CO)c1ccccc1)C2 (some centres unmarked) [atropine, Atropine]
need for photochromatic glasses (concentrations 0.01% to 0.05%, treated patients, two years of treatment): higher than 30% | tolerability (concentrations ranging from 0.01% to 0.05%, 383 children, after two years of treatment): well tolerated
